# Test results taken from patent US20240358842A1, “PROTEIN STABILIZING COMPOUNDS CONTAINING USP7 LIGANDS” (Stablix, Inc., priority 2021, published 2024).
# Like-named read-outs stand apart in the source and are kept apart here.
# Legend:
# USP7 CD + UBL 1-5 = biological target: T1, USP7 CD + UBL 1-5 (Homo sapiens, UniProt Q93009); test: Surface plasmon resonance assay (SPR); type: binding
# T1 construct: USP7 CD +
# Protocol: The surface plasmon resonance experiments were performed using a Cytiva (formerly GE Healthcare) Biacore 8K equipped with a Series S Sensor Chip SA. The ligands were immobilized via a biotin-modified biotin acceptor peptide. USP7 Ligands were diluted in running buffer (HBS-P+2% DMSO; 10 mM HEPES, pH 7.4, 150 mM NaCl, 1 mM DTT, 0.05% P20, 2% DMSO) to 100 μg/mL and injected at […] until a density between 500-10,000 RU was reached on flow-cell two of each channel, and flow cell one was left blank to serve as a reference surface. Both surfaces were washed until a stable baseline was achieved then 30 startup cycles to condition the surface. To collect kinetic and steady-state binding data, the small molecule analytes were prepared in three-fold dilution series in HBS-P+2% DMSO running buffer. Analytes were injected over both flow cells at a flow rate of […] at 25° C. The complex was allowed to associate for 60 seconds and dissociate for 300 seconds. Data were collected at 10 Hz. The data were fit to a simple 1:1 interaction model global data analysis within Cytiva Biacore Insight Evaluation Software.
# USP7 = USP7 (Homo sapiens, UniProt Q93009); test: Ub-Rho cleavage assay; type: biochemical
# Protocol: All fluorescence measurements were performed on a Molecular Devices FlexStation3 with excitation at 480 nm and emission 540 nm, PMT Gain: Medium, Flash Number: 10. […] Assay buffer for all measurements was 50 mM HEPES, 100 mM NaCl, 0.5 mM EDTA, 1 mM TCEP, 0.1 mg/ml BSA, 0.01% Tween-20, pH 7.8. […] Serial dilutions were made with a Mosquito HTS (SPT Labtech) nanoliter liquid handler. 200 nL of each compound in duplicate or DMSO control were transferred to the assay plate. The first two columns served as positive controls. 9.8 μl per well of USP7 working solution was added to the assay plate. Compound+Protein was incubated for 25 min at 25° C. 10 uL of Ub-Rho substrate was added per well and incubated for an additional 15 min at 25° C. Fluorescence was then measured. Percent response relative to DMSO controls was calculated in GraphPad or Scinamic, and the data was fitted to a non-linear regression to determine IC50 values.
# [1] = steady-state KD, read-out: SPR USP7 CD + UBL 1-5 (KD_ss)
# [2] = Ub-Rho substrate, recombinant USP7, read-out: Ub (Rho) USP7.1 (IC50)
# Chain of USP7 (Q93009 whole entry): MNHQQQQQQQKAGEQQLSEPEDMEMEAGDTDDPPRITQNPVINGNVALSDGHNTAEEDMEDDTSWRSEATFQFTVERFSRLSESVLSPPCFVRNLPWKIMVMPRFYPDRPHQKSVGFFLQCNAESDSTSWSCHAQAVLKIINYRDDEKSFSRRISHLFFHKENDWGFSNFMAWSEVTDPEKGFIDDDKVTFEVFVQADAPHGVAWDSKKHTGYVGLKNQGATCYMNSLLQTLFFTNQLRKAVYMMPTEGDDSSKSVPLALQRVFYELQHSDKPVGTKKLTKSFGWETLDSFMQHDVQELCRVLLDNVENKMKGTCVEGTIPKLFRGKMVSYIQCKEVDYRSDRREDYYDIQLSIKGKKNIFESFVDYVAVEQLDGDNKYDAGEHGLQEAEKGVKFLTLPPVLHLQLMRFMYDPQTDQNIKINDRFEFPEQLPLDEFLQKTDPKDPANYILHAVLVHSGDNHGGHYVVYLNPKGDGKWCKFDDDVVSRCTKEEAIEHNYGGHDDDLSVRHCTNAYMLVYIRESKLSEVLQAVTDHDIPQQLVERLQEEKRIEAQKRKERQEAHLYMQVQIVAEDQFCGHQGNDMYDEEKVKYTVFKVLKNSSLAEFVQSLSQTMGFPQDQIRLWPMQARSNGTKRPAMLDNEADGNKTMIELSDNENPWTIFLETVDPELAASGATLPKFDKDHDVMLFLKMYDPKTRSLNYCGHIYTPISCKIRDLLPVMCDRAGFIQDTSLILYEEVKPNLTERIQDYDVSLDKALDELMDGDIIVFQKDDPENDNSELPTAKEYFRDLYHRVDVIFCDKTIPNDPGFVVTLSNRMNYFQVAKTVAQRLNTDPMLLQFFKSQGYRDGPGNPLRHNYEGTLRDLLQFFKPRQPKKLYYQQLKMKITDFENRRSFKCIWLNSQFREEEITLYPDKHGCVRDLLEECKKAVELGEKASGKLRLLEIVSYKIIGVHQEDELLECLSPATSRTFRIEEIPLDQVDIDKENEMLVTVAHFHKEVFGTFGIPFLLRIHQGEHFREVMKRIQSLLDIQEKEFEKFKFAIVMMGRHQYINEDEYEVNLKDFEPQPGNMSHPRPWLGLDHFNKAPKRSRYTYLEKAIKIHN
# T1 sequence (Q93009 208-1102 limits assumed): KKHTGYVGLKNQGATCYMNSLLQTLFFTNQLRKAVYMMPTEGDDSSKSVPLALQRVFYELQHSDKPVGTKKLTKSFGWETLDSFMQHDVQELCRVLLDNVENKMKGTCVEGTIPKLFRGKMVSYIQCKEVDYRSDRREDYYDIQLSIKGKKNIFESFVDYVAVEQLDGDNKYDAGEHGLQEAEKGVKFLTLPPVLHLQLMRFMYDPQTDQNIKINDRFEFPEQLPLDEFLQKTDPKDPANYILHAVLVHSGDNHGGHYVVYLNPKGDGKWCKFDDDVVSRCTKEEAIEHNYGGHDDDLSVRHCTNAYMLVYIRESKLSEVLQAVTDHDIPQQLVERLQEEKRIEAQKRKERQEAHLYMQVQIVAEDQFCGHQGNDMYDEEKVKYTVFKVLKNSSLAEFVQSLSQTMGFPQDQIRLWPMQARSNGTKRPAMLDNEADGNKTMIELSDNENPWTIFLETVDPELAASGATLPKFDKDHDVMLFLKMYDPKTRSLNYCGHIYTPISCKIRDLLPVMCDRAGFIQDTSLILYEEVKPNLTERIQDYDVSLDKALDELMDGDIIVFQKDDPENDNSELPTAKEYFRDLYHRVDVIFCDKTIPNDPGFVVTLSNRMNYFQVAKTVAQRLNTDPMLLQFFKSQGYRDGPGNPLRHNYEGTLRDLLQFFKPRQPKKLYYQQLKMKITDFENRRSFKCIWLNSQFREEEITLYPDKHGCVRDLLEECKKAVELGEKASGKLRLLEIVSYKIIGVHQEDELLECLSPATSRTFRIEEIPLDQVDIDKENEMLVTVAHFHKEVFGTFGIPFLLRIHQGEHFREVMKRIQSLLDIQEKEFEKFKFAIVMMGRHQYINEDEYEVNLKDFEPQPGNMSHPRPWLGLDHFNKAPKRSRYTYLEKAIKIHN
Kd (USP7 CD + UBL 1-5; [1]) [nM],IC50 (USP7; [2]) [µM],"Kd (USP7 CD + UBL 1-5; kinetic KD, read-out: SPR USP7 CD + UBL 1-5 (KD_kinetic)) [nM]","Kd (USP7 CD + UBL 1-5; SPR USP7 CD + UBL 1-5 (KD_ss) [nM], steady-state KD) [nM]",IC50 (USP7) [µM],SMILES
1000 to 100000,> 100,,,,CN1CCCn2nc(C(=O)Nc3nc4ccc(NS(=O)(=O)c5cccnc5)cc4s3)cc2C1 [U103]
> 100000,1 to 100,,,,CN1CCCn2nc(C(=O)Nc3nc4ccc(NS(=O)(=O)c5cccs5)cc4s3)nc2C1 [U124]
1000 to 100000,1 to 100,1000 to 100000,,,CCc1c(-c2ccc3[nH]ncc3c2)cnc(N)c1-c1ccc(O)cc1 [U8]
1000 to 100000,1 to 100,,,,CCc1c(-c2ccc(C(=O)NCCCNC(=O)CCCCNC(=O)OC(C)(C)C)nc2)cnc(N)c1-c1ccc(O)cc1 [U45]
1000 to 100000,1 to 100,,,,CCc1c(-c2ccc3[nH]ncc3c2)cnc(CNC(=O)OC(C)(C)C)c1-c1ccc(O)cc1 [U60]
1000 to 100000,> 100,,,,NCCN(c1ccc2nc(NC(=O)c3ccco3)sc2c1)S(=O)(=O)c1cccs1 [U94]
1000 to 100000,1 to 100,,,,CCc1c(-c2ccc(C(=O)NC)cc2)cnc(N)c1-c1ccc(O)cc1 [U11]

# More lines, now with the values behind:
SMILES,Kd (USP7 CD + UBL 1-5; [1]) [nM],IC50 (USP7; [2]) [µM],"Kd (USP7 CD + UBL 1-5; kinetic KD, read-out: SPR USP7 CD + UBL 1-5 (KD_kinetic)) [nM]","Kd (USP7 CD + UBL 1-5; SPR USP7 CD + UBL 1-5 (KD_ss) [nM], steady-state KD) [nM]",IC50 (USP7) [µM]
CN1CCCn2nc(C(=O)Nc3nc4ccc(N(C5CCNC5)S(=O)(=O)c5cccs5)cc4s3)cc2C1 (stereo not drawn) [U120],1000 to 100000,> 100,,,
C[C@H](CC(=O)N1CCC(O)(CN2C=NC3C(C#CCOCCNC(=O)OC(C)(C)C)=CSC3C2=O)CC1)c1ccccc1 (stereo partly drawn) [U20],1000 to 100000,1 to 100,,,
Cc1cc(Cl)cc(-c2ccnc3cc(CN4C(=O)CCC4=O)sc23)c1OC1CCN(C(=O)CCOCCOCCOCCNC(=O)OC(C)(C)C)CC1 [U34],1000 to 100000,1 to 100,,,
CN1CC2CN(C(=O)Nc3nc4ccc(NS(=O)(=O)c5cccs5)cc4s3)CC2C1 (stereo not drawn) [U117],1000 to 100000,> 100,,,
O=C(C[C@@H](C(F)F)n1ccc(F)n1)N1CCC(O)(Cn2cnc3c(cnn3-c3ccc(F)cc3)c2=O)CC1 [U25],,,,< 1000,< 1
NCc1cc(Nc2nc3ccc(NS(=O)(=O)c4cn5c(n4)CCC5)cc3s2)ncn1 [U100],1000 to 100000,> 100,,,
Cc1cc(Cl)cc(-c2ccnc3cc(CN4C(=O)CCC4=O)sc23)c1OC1CCN(C(=O)CCOCCNC(=O)OC(C)(C)C)CC1 [U32],1000 to 100000,1 to 100,,,
Cc1cc(Cl)cc(-c2ccnc3cc(CN4C(=O)CCC4=O)sc23)c1OC1CCN(C(=O)CCOCCOCCNC(=O)OC(C)(C)C)CC1 [U33],1000 to 100000,1 to 100,,,
CN1CCC(C(=O)Nc2nc3ccc(NS(=O)(=O)N4CC(F)C4)cc3s2)CC1 [U89],> 100000,> 100,,,
